Here are results for 30 compounds from US9839639B2, “Neprilysin inhibitors” (THERAVANCE BIOPHARMA R&D IP, LLC, priority 2014, dated 2017).

The structures appear in SMILES notation. Bounds are passed on as bounds.

For the test, the target named is T1, human NEP (Homo sapiens, UniProt P08473).
T1 construct: purchased R&D Systems, Minneapolis, Minn; 1182-ZN
The test is described as follows: In vitro enzyme inhibition assay, inhibitor potency at human NEP. Format: biochemical. Conditions: recombinant human NEP, fluorogenic peptide substrate 10 μM, 37° C.; values given as ranges. As for the experimental part: The inhibitory activities of compounds at human and rat neprilysin (EC 3.4.24.11; NEP) and human angiotensin converting enzyme (ACE) were determined using in vitro assays as described below.
Recombinant human NEP and recombinant human ACE were obtained commercially (R&D Systems, Minneapolis, Minn., catalog numbers 1182-ZN and 929-ZN, respectively). The fluorogenic peptide substrate Mca-D-Arg-Arg-Leu-Dap-(Dnp)-OH (Medeiros et al. (1997) Braz. J. Med. Biol. Res. 30:1157-62; Anaspec, San Jose, Calif.) and Abz-Phe-Arg-Lys(Dnp)-Pro-OH (Araujo et al. (2000) Biochemistry 39:8519-8525; Bachem, Torrance, Calif.) were used in the NEP and ACE assays respectively.
The assays were performed in 384-well white opaque plates at 37° C. using the fluorogenic peptide substrates at a concentration of 10 μM in Assay Buffer (NEP: 50 mM HEPES, pH 7.5, 100 mM NaCl, 0.01% polyethylene glycol sorbitan monolaurate (Tween-20), 10 μM ZnSO4; ACE: 50 mM HEPES, pH 7.5, 100 mM NaCl, 0.01% Tween-20, 1 μM ZnSO4).
Test compounds were assayed over the range of concentrations from 10 μM to 20 pM. Test compounds were added to the enzymes and incubated for 30 minute at 37° C. prior to initiating the reaction by the addition of substrate. Reactions were terminated after 20 minutes of incubation at 37° C. by the addition of glacial acetic acid to a final concentration of 3.6% (v/v).
Plates were read on a fluorometer with excitation and emission wavelengths set to 320 nm and 405 nm, respectively. Inhibition constants were obtained by nonlinear regression of the data using the equation (GraphPad Software, Inc., San Diego, Calif.): v=v0/[1+(I/K′)] where v is the reaction rate, v0 is the uninhibited reaction rate, I is the inhibitor concentration and K′ is the apparent inhibition constant.
Compounds of the invention were tested in this assay and found to have pKi values at human NEP as follows.

T1 sequence (P08473 52-750 limits assumed): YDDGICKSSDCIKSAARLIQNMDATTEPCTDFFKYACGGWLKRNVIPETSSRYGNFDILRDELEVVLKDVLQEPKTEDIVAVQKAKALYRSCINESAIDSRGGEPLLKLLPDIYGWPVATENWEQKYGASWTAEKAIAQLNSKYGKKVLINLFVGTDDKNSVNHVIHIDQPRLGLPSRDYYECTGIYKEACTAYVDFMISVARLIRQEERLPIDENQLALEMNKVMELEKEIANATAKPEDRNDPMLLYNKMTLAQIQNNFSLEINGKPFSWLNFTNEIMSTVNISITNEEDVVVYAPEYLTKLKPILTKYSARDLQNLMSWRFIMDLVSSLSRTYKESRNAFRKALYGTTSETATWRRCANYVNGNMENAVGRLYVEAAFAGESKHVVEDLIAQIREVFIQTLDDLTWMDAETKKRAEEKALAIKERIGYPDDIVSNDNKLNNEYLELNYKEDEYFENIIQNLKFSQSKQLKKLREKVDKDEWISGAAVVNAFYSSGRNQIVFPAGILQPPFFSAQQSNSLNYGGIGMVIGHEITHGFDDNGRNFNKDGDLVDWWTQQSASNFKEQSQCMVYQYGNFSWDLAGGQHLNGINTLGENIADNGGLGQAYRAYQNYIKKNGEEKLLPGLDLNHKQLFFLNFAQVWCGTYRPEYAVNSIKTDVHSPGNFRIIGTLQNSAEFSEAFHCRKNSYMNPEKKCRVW

Broadly, the Ki is the dissociation constant of the complex between target and ligand, obtained from inhibition or displacement. For the compound `CC(N)(C[C@@H](Cc1ccc(-c2cc(Cl)ccc2F)cc1)NC(=O)c1cnn[nH]1)C(=O)O` (single isomer, unassigned) [Example 1a], the inhibition constant (Ki) was 3.98 to 10 nM. On the same count and under the same terms, the same measure for `CC(C#N)(C[C@@H](Cc1ccc(-c2cc(Cl)ccc2F)cc1)NC(=O)c1cnn[nH]1)C(=O)O` (single isomer, unassigned) [Example 12a]: 39.8 to 100 nM.

As for `CC(C#N)(C[C@@H](Cc1ccc(-c2cc(Cl)ccc2F)cc1)NC(=O)c1cnn[nH]1)C(=O)O` (single isomer, unassigned) [Example 12b], the Ki was at most 1 nM.

As to `CCC(CO)(C[C@@H](Cc1ccc(-c2cc(Cl)ccc2F)cc1)NC(=O)c1cnn[nH]1)C(=O)O` (single isomer, unassigned) [Example 14b], the pKi result is given as “≧9.0”. Take `CCCC(CO)(C[C@@H](Cc1ccc(-c2cc(Cl)ccc2F)cc1)NC(=O)c1cnn[nH]1)C(=O)O` (single isomer, unassigned) [Example 15b]: the pKi result is “≧9.0”.

On to `O=C(N[C@H](Cc1ccc(-c2cc(Cl)ccc2F)cc1)CC(CO)(CCO)C(=O)O)c1cnn[nH]1` (single isomer, unassigned) [Example 16a], for which the inhibition constant Ki is 1.26 to 3.16 nM. For the compound `O=C(N[C@H](Cc1ccc(-c2cc(Cl)ccc2F)cc1)CC(CO)(CCO)C(=O)O)c1cnn[nH]1` (single isomer, unassigned) [Example 16b], the Ki is 12.6 to 31.6 nM. In the case of `C=CCC(CO)(C[C@@H](Cc1ccc(-c2cc(Cl)ccc2F)cc1)NC(=O)c1cnn[nH]1)C(=O)O` (single isomer, unassigned) [Example 19a], the Ki is at most 1 nM.

For `O=C(N[C@H](Cc1ccc(-c2cc(Cl)ccc2F)cc1)CC1(C(=O)O)CCOC1)c1cnn[nH]1` (single isomer, unassigned) [Example 20b], the pKi result was “≧9.0”. In the case of `O=C(N[C@H](Cc1ccc(-c2cc(Cl)ccc2F)cc1)CC1(C(=O)O)CCNC1)c1cnn[nH]1` (single isomer, unassigned) [Example 21a], the Ki was at most 1 nM. Regarding `CC(=O)N1CCC(C[C@@H](Cc2ccc(-c3cc(Cl)ccc3F)cc2)NC(=O)c2cnn[nH]2)(C(=O)O)C1` (single isomer, unassigned) [Example 22a], the Ki was at most 1 nM. With `CCC(C#N)(C[C@@H](Cc1ccc(-c2cc(Cl)ccc2F)cc1)NC(=O)c1cnn[nH]1)C(=O)O` (single isomer, unassigned) [Example 23a], the Ki is at most 1 nM. `CCC(C#N)(C[C@@H](Cc1ccc(-c2cc(Cl)ccc2F)cc1)NC(=O)c1cnn[nH]1)C(=O)O` (single isomer, unassigned) [Example 23b]: the Ki is 126 to 316 nM. As to `C[C@@](CN)(C[C@@H](Cc1ccc(-c2cc(Cl)ccc2F)cc1)NC(=O)c1cnn[nH]1)C(=O)O` [Example 2, (2S,4R)-2-Aminomethyl-5-(5′-chloro-2′-fluorobiphenyl-4-yl)-2-methyl-4-[(3H-[1,2,3]triazole-4-carbonyl)amino]pentanoic Acid], the Ki is at most 1 nM. Regarding `C[C@@](CN)(C[C@@H](Cc1ccc(-c2cc(Cl)ccc2F)cc1)NC(=O)c1ccn(C(F)F)n1)C(=O)O` [Example 3, (2S,4R)-2-Aminomethyl-5-(5′-chloro-2′-fluorobiphenyl-4-yl)-4-[(1-difluoromethyl-1H-pyrazole-3-carbonyl)amino]-2-methylpentanoic Acid], the Ki is 1.26 to 3.16 nM. As to `CC(=O)c1cc(C(=O)N[C@H](Cc2ccc(-c3cc(Cl)ccc3F)cc2)C[C@@](C)(CN)C(=O)O)[nH]n1` [Example 4-1, (2S,4R)-4-[(5-Acetyl-2H-pyrazole-3-carbonyl)-amino]-2-aminomethyl-5-(5′-chloro-2′-fluorobiphenyl-4-yl)-2-methylpentanoic acid], the Ki is 3.98 to 10 nM.

For `Cc1cnc(C(=O)N[C@H](Cc2ccc(-c3cc(Cl)ccc3F)cc2)C[C@@](C)(CN)C(=O)O)o1` [Example 4-2, (2S,4R)-2-Aminomethyl-5-(5′-chloro-2′-fluorobiphenyl-4-yl)-2-methyl-4-[(5-methyl-oxazole-2-carbonyl)amino]pentanoic acid], the Ki was 1.26 to 3.16 nM.

As for `C[C@](C[C@@H](Cc1ccc(-c2cc(Cl)ccc2F)cc1)NC(=O)c1c[nH]nn1)(C(N)=O)C(=O)O` [Example 5, (2S,4R)-2-Carbamoyl-5-(5′-chloro-2′-fluorobiphenyl-4-yl)-2-methyl-4-[(1H-[1,2,3]triazole-4-carbonyl)amino]pentanoic Acid], the inhibition constant (Ki) is at most 1 nM. Regarding `CC(C[C@@H](Cc1ccc(-c2cc(Cl)ccc2F)cc1)NC(=O)c1c[nH]nn1)(C(=O)O)C(=O)O` [Example 6, 2-{(R)-3-(5′-Chloro-2′-fluorobiphenyl-4-yl)-2-[(1H-[1,2,3]triazole-4-carbonyl)amino]propyl}-2-methylmalonic Acid], the inhibition constant (Ki) was at most 1 nM. In the case of `COC[C@](C)(C[C@@H](Cc1ccc(-c2cc(Cl)ccc2F)cc1)NC(=O)c1noc(=O)[nH]1)C(=O)O` [Example 7, (2S,4R)-5-(5′-Chloro-2′-fluorobiphenyl-4-yl)-2-methoxymethyl-2-methyl-4-[(5-oxo-4,5-dihydro-[1,2,4]oxadiazole-3-carbonyl)amino]pentanoic Acid], the inhibitory constant (Ki) is at most 1 nM. `COC[C@](C)(C[C@@H](Cc1ccc(-c2cc(Cl)ccc2F)cc1)NC(=O)c1ncc(C)o1)C(=O)O` [Example 8-1, (2S,4R)-5-(5′-Chloro-2′-fluorobiphenyl-4-yl)-2-methoxymethyl-2-methyl-4-[(5-methyloxazole-2-carbonyl)amino]pentanoic acid]: the Ki was at most 1 nM. Same read-out and setting: next, `COC[C@](C)(C[C@@H](Cc1ccc(-c2cc(Cl)ccc2F)cc1)NC(=O)c1coc(C2CC2)n1)C(=O)O` [Example 8-2, (2S,4R)-5-(5′-Chloro-2′-fluorobiphenyl-4-yl)-4-[(2-cyclopropyloxazole-4-carbonyl)amino]-2-methoxymethyl-2-methylpentanoic acid]: 1.26 to 3.16 nM. Same read-out and setting: the same measure for `COC[C@](C)(C[C@@H](Cc1ccc(-c2cc(Cl)ccc2F)cc1)NC(=O)c1ccc(Cl)cn1)C(=O)O` [Example 8-3, (2S,4R)-5-(5′-Chloro-2′-fluorobiphenyl-4-yl)-4-[(5-chloropyridine-2-carbonyl)amino]-2-methoxymethyl-2-methylpentanoic acid]: 1.26 to 3.16 nM; for `COC[C@](C)(C[C@@H](Cc1ccc(-c2cc(Cl)ccc2F)cc1)NC(=O)c1ncccn1)C(=O)O` [Example 8-4, (2S,4R)-5-(5′-Chloro-2′-fluorobiphenyl-4-yl)-2-methoxymethyl-2-methyl-4-[(pyrimidine-2-carbonyl)amino]pentanoic acid]: at most 1 nM; for `COC[C@](C)(C[C@@H](Cc1ccc(-c2cc(Cl)ccc2F)cc1)NC(=O)c1ccc(C(F)(F)F)cn1)C(=O)O` [Example 8-5, (2S,4R)-5-(5′-Chloro-2′-fluorobiphenyl-4-yl)-2-methoxymethyl-2-methyl-4-[(5-trifluoromethylpyridine-2-carbonyl)amino]pentanoic acid]: at most 1 nM. In the case of `COC[C@](C)(C[C@@H](Cc1ccc(-c2cc(Cl)ccc2F)cc1)NC(=O)c1ncco1)C(=O)O` [Example 8-6, (2S,4R)-5-(5′-Chloro-2′-fluorobiphenyl-4-yl)-2-methoxymethyl-2-methyl-4-[(oxazole-2-carbonyl)amino]pentanoic acid], the Ki is at most 1 nM. For `COC[C@](C)(C[C@@H](Cc1ccc(-c2cc(Cl)ccc2F)cc1)NC(=O)c1nc[nH]n1)C(=O)O` [Example 8-7, (2S,4R)-5-(5′-Chloro-2′-fluorobiphenyl-4-yl)-2-methoxymethyl-2-methyl-4-[(1H-[1,2,4]triazole-3-carbonyl)amino]pentanoic acid], the Ki is 1.26 to 3.16 nM. Still for that read-out and setting: next, `CCOn1cc(C(=O)N[C@H](Cc2ccc(-c3cc(Cl)ccc3F)cc2)C[C@@](C)(COC)C(=O)O)nn1` [Example 8-8, (2S,4R)-5-(5′-Chloro-2′-fluorobiphenyl-4-yl)-4-[(1-ethoxy-1H-[1,2,3]triazole-4-carbonyl)amino]-2-methoxymethyl-2-methylpentanoic acid]: at most 1 nM; `COC[C@](C)(C[C@@H](Cc1ccc(-c2cc(Cl)ccc2F)cc1)NC(=O)c1cn(OC)nn1)C(=O)O` [Example 8-9, (2S,4R)-5-(5′-Chloro-2′-fluorobiphenyl-4-yl)-2-methoxymethyl-4-[(1-methoxy-1H-[1,2,3]triazole-4-carbonyl)amino]-2-methylpentanoic acid]: 1.26 to 3.16 nM. In the case of `COC[C@](C)(C[C@@H](Cc1ccc(-c2cc(Cl)ccc2F)cc1)NC(=O)c1cn(CCO)nn1)C(=O)O` [Example 8-10, (2S,4R)-5-(5′-Chloro-2′-fluorobiphenyl-4-yl)-4-{[1-(2-hydroxyethyl)-1H-[1,2,3]triazole-4-carbonyl]amino}-2-methoxymethyl-2-methylpentanoic acid], the inhibitory constant (Ki) was 1.26 to 3.16 nM.
